The target of assay [1] is T1, MycCI (Micromonospora griseorubida, UniProt Q83WF5).
T1 sequence (Q83WF5 1-388): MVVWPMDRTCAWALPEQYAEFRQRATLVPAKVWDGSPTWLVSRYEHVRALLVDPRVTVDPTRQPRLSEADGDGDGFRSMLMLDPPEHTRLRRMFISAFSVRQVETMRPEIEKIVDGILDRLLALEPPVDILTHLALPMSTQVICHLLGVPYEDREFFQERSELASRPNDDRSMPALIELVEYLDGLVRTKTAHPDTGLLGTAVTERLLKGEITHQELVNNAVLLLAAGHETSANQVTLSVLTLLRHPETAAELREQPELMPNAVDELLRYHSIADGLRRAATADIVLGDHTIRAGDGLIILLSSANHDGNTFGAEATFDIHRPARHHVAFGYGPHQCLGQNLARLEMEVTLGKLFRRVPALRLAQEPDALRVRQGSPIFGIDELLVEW
The assay is described as follows: Equilibrium substrate binding assay. The conditions noted are these: for Percent of enzyme in high-spin state at saturating substrate: MycCI wild-type, relative to saturation with 10 taken as complete conversion.

The target of assay [2] is T2, MycCI in conjunction with MycCII and MBP-FdR (Micromonospora griseorubida, UniProt Q83WF5).
T2 sequence (Q83WF5 1-388): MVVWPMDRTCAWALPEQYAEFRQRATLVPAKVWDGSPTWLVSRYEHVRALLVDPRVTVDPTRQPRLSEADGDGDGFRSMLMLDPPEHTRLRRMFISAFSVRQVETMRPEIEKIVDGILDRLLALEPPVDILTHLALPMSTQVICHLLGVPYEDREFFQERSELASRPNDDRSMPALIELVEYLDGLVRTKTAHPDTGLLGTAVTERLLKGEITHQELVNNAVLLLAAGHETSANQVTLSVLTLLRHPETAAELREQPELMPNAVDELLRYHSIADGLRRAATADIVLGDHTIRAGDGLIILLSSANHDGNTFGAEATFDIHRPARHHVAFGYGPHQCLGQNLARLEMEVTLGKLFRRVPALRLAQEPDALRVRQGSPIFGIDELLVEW
The assay is described as follows: Scale-up reactions with MycCI, MycCII and MBP-FdR, conversion. The following applies: for Conversion: scale-up reactions. It counts as biochemical.

Assay [3] deals with TylHI/MycCII (Streptomyces fradiae, UniProt Q9ZHQ1). Nature of the assay: Turnover frequency. It is filed as biochemical. The conditions noted are these: MycCII as surrogate ferredoxin vs TylHII.
Assay [4] addresses TylHI/TylHII (Streptomyces fradiae, UniProt Q9ZHQ1). Nature of the assay: Turnover frequency. It counts as biochemical. The following applies: TylHI/TylHII/MBP-FdR.
Assay [5] relates to TamI-RhFRED. The conditions noted are these: cited from earlier work.
Assay [6] deals with MycCI-RhFRED (Micromonospora griseorubida, UniProt Q83WF5). Nature of the assay: Steady-state kinetics / TOF, product formation by HPLC. It is filed as biochemical. The following applies: for Fold lower rate of product formation vs tripartite MycCI system: MycCI-RhFRED compared to MycCI/MycCII/MBP-FdR, label is the product formed.
Assay [7] deals with T1, MycCI. The conditions noted are these: determined by monitoring NADPH consumption; cited from earlier work.
In assay [8] the target is T3, MycCI/MycCII/MBP-FdR (Micromonospora griseorubida, UniProt Q83WF5).
T3 sequence (Q83WF5 1-388): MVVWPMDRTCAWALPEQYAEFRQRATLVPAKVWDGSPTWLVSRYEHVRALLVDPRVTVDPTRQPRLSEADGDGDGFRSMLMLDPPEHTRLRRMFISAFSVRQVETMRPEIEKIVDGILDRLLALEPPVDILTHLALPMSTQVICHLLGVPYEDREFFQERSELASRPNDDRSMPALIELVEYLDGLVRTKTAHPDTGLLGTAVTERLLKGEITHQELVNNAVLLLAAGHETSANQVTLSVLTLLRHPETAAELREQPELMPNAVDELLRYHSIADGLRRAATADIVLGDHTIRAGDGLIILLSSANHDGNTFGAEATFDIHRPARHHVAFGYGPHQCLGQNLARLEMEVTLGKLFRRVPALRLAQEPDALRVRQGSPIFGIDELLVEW
Nature of the assay: Steady-state kinetics / TOF, product formation by HPLC. It counts as biochemical.

Assay [9] concerns the target T4, MycCI/MycCII (Micromonospora griseorubida, UniProt Q83WF5).
T4 sequence (Q83WF5 1-388): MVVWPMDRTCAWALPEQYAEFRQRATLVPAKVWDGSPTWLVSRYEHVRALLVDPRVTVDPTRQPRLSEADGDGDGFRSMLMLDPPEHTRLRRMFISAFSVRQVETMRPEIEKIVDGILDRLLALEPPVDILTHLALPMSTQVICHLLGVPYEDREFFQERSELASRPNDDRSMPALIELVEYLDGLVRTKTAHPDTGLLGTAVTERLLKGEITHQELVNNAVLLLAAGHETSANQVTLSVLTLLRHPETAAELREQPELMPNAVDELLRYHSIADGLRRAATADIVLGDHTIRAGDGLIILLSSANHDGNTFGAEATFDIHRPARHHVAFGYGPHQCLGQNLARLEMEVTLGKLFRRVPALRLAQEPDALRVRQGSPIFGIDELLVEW
Nature of the assay: Total turnover number. It is filed as biochemical. The following applies: MycCI/MycCII/MBP-FdR.

Assay [10] has as its target MycCI (Micromonospora griseorubida) (UniProt Q83WF5). The following applies: cited from earlier work.
Assay [11] deals with OleP. The conditions noted are these: binding to OleP; cited from earlier work.
The target in assay [12] is T1, MycCI. The following applies: read-out: apparent dissociation constant (Kd); N-terminal His-tagged MycCII binding to MycCI; cited from earlier work.

Like-named read-outs stand apart in the source and are kept apart here.

TylHI/MycCII, sequence (Q9ZHQ1 whole entry): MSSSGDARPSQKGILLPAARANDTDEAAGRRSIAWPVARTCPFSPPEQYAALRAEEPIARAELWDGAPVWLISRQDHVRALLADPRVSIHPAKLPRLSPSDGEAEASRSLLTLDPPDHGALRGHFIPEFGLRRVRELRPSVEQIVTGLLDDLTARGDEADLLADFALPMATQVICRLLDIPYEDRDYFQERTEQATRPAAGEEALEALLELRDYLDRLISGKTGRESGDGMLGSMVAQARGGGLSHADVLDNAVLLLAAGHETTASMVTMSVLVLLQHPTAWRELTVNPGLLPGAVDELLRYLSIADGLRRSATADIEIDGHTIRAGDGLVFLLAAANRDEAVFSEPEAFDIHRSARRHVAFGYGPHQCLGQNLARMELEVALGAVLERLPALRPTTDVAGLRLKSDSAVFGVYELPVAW
TylHI/TylHII, sequence (Q9ZHQ1 whole entry): as above

In assay [1] (Kd, MycCI), `CC[C@H]1C[C@@H](C)C(=O)/C=C/C(C)=C/[C@H](C)[C@@H](CC)OC(=O)C[C@@H](O)[C@H](C)[C@H]1O` [compound 10, tylactone] yielded a Kd of roughly 3 µM. In assay [2], the Conversion is given as ~ 50%. As for `CC[C@H]1OC(=O)C[C@@H](O)[C@H](C)[C@@H](O[C@@H]2O[C@H](C)[C@@H](O)[C@H](N(C)C)[C@H]2O)[C@@H](CC=O)C[C@@H](C)C(=O)/C=C/C(C)=C/[C@@H]1C` [compound 12, 23-deoxy-5-O-mycaminosyl-tylonolide], the “Fold increase of TOF with MycCII instead of TylHII” value in assay [3] was found to be 12 fold. Further, in assay [4], the “Turnover frequency (TOF)” value is 0.14 ± 0.03 min⁻¹. In the case of `CC(/C=C/C(O)=C1/C(=O)CNC1=O)=C\[C@@H](C)[C@H]1O[C@@]2(C)O[C@H](C(=O)[C@H]3O[C@]32C)[C@@H]1C` [tirandamycin A], in assay [5], the turnover number (kcat) was 0.00183 ± 0.00017 s⁻¹. Turning to `CC[C@H]1OC(=O)[C@H](C)C(=O)[C@H](C)[C@@H](O[C@@H]2O[C@H](C)C[C@H](N(C)C)[C@H]2O)[C@@H](C)C[C@@H](C)C(=O)/C=C/[C@H]1C` [compound 5, narbomycin], in [1], the “Percent of enzyme in high-spin state at saturating substrate” value (from here on “Percent of enzyme in high-spin state”) was ~ 80%. For the same molecule, in [2] (scale-up, first monohydroxylated product), the “Monohydroxylated product, share of the reaction mixture” value is reported as ~ 2%. Also, the “Slightly more polar monohydroxylated product, share of the reaction mixture” value in assay [2] (scale-up, second product) was ~ 0.5%. Turning to `CC[C@H]1OC(=O)/C=C/[C@H](C)[C@@H](O)[C@@H](C)C[C@@H](C)C(=O)/C=C/C=C/[C@@H]1CO` [compound 13, mycinolide IV], the “Fold lower rate of product formation vs tripartite MycCI system” value in [6] is roughly 6 fold. Take `CC[C@H]1OC(=O)/C=C/[C@H](C)[C@@H](O[C@@H]2O[C@H](C)C[C@H](N(C)C)[C@H]2O)[C@@H](C)C[C@@H](C)C(=O)/C=C/C=C/[C@@H]1C` [compound 9, mycinamicin VIII]: in assay [7], the kcat was 1.73 ± 0.033 s⁻¹. Moreover, the “Turnover rate at low substrate concentration” value in assay [8] (MycCI/MycCII/MBP-FdR, 10 μM substrate) was found to be 2.3 ± 0.3 min⁻¹. Further, the “Turnover frequency (TOF)” value is 1.4 ± 0.1 min⁻¹ in assay [8] (tripartite MycCI/MycCII/MBP-FdR, 500 μM substrate) and 1.19 ± 0.06 min⁻¹ in assay [6] (MycCI-RhFRED, 500 μM substrate). As for `CC[C@H]1OC(=O)[C@H](C)[C@@H](O)[C@@H](C)C[C@@H](C)C(=O)/C=C/[C@H]1C` [compound 2, 10-deoxymethynolide], the “C-H oxidation of the compound by the enzyme” value (“C-H oxidation of the compound” for short) in assay [9] is recorded as “unable to catalyze C-H oxidation”. Besides, in [1] (MycCI), the “Concentration-dependent change in the spin state of the enzyme” value is “did not induce a concentration-dependent change in the spin state”. For 23-hydroxy-tylactone [compound 15], the “Fold lower rate of product formation vs tripartite MycCI system” value in assay [6] is on record as “about 3 fold”. As for `CC[C@H]1OC(=O)/C=C/[C@H](C)[C@@H](O)[C@@H](C)C[C@@H](C)C(=O)/C=C/C=C/[C@@H]1C` [compound 8, protomycinolide IV], the “Percent of enzyme in high-spin state” value in assay [1] is listed as ~ 80%. Also, the “Fold lower specificity constant relative to 10” value in assay [6] (MycCI-RhFRED, product formation) is ~ 14 fold. Further, the Conversion in assay [2] is ~ 30%. As for MycCII (from UniProt Q83WF4), the Kd in [10] was 7 µM. For `CC(=O)N1CCN(c2ccc(OCC3COC(Cn4ccnc4)(c4ccc(Cl)cc4Cl)O3)cc2)CC1` (centres unmarked) [ketoconazole], the Kd in assay [11] is 0.005 µM. In the case of `CC[C@H]1OC(=O)[C@H](C)C(=O)[C@H](C)[C@@H](O)[C@@H](C)C[C@@H](C)C(=O)/C=C/[C@H]1C` [compound 4, narbonolide], in assay [9], the “C-H oxidation of the compound” value is listed as “unable to catalyze C-H oxidation”. For the same molecule, in assay [1] (MycCI), the “Concentration-dependent change in the spin state of the enzyme” value is reported as “did not induce a concentration-dependent change in the spin state”.

Regarding `CC[C@H]1OC(=O)[C@H](C)[C@@H](O[C@@H]2O[C@H](C)C[C@H](N(C)C)[C@H]2O)[C@@H](C)C[C@@H](C)C(=O)/C=C/[C@H]1C` [compound 3, YC-17], the “C-H oxidation of the compound” value in assay [9] is listed as “unable to catalyze C-H oxidation”. Further, the “Percent of enzyme in high-spin state” value in assay [1] was ~ 30%.

B1: MycCII: [3Fe-4S]-type ferredoxin encoded by mycCII, redox partner of MycCI (protein)
chain: MRIVLDAERCVGAGQCEATAPELFTQGDDGLGLVRDRPVTPELLGPAREAVDRCPVRAIRIESSVRTGWARGAG
modifications: left off: His tag, N-terminal, state not stated
Regarding B1, the Kd in assay [12] was 7 µM.

In general, kcat refers to the maximal rate divided by the concentration of active sites.

Values taken from PMC5026600 (ACS chemical biology, 2016).
